From patent US8455497B2, “Inhibitors of aspartyl protease” (Vertex Pharmaceuticals Incorporated, priority 1999, dated 2013)
Like-named read-outs stand apart in the source and are kept apart here.

Columns and labels:
HIV-1 (strain IIIB) = experiment: Antiviral activity assay in MT4 cells (propidium iodide based); format: cell-based; conditions: wild type HIV-1 virus, MT4 cells, read-out: Wildtype virus - IC50
Method in brief: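 MT4 cells infected with HIV-1 IIIB (MOI 100×TCID50, 1 hr, 37°C), diluted 6-fold into wells with serially diluted compound, incubated 5 days. Cells lysed with Nonidet-40; DNA content per well estimated by propidium iodide staining as the viability read-out, with mock-infected controls.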

[1] = system: D545701-14 multi protease inhibitor resistant virus; experiment: Anti-viral activity against resistant virus D545701-14 in MT4 cells; format: cell-based, HIV-1
[2] = system: EP13 multi protease inhibitor resistant virus; experiment: Anti-viral activity against resistant virus EP13 in MT4 cells; format: cell-based, HIV-1
Method in brief: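 MT4 cells infected for 1 h at 37 °C, MOI 100×TCID50, then diluted 6-fold onto pre-diluted compound and cultured 5 days (5% CO2). Viable-cell DNA content estimated by propidium iodide. EP13 carries protease mutations M46I, L63P, A71V, V82F/L, I84V, no RT mutations.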

[3] = Human immunodeficiency virus 1, IIIB
[4] = Human immunodeficiency virus 1, MT4, read-out: D545701-14 mutant - IC50, D545701-14 multi protease inhibitor resistant virus, MT4 cells
[5] = Human immunodeficiency virus 1, MT4, read-out: EP13 mutant IC50, EP13 multi protease inhibitor resistant virus, MT4 cells
[6] = Human immunodeficiency virus 1, MT4, read-out: D545701-14 mutant - IC50
[7] = Human immunodeficiency virus 1, MT4, read-out: EP13 mutant IC50

SMILES | IC50 (HIV-1 (strain IIIB); [3]) [nM] | IC50 [1, 4] [nM] | IC50 [2, 5] [nM] | IC50 [1, 6] [nM] | IC50 [2, 7] [nM] | IC50 (HIV-1 (strain IIIB)) [nM] | IC50 ([1]; D545701-14 multi protease inhibitor resistant virus, MT4 cells, read-out: D545701-14 mutant - IC50) [nM] | IC50 ([2]; EP13 multi protease inhibitor resistant virus, MT4 cells, read-out: EP13 mutant IC50) [nM]
CC(C)CN(C[C@@H](O)[C@H](Cc1ccc(OCc2cccc(F)c2)cc1)NC(=O)O[C@H]1CO[C@H]2OCC[C@H]21)S(=O)(=O)c1ccc2c(c1)OCO2 [Compound 378, (3R,3aS,6aR)-hexahydrofuro[2,3-b]furan-3-yl (1S,2R)-3-[(1,3-benzodioxol-5-ylsulfonyl)(isobutyl)amino]-1-{4-[(3-fluorobenzyl)oxy]benzyl}-2-hydroxypropylcarbamate] | 1 to 10 | 10 to 100 | 1 to 10 | – | – | – | – | –
Cc1cccc(COc2ccc(C[C@H](NC(=O)O[C@H]3CO[C@H]4OCC[C@H]43)[C@H](O)CN(CC(C)C)S(=O)(=O)c3ccc4c(c3)OCO4)cc2)c1 [Compound 377, (3R,3aS,6aR)-hexahydrofuro[2,3-b]furan-3-yl (1S,2R)-3-[(1,3-benzodioxol-5-ylsulfonyl)(isobutyl)amino]-2-hydroxy-1-{4-[(3-methylbenzyl)oxy]benzyl}propylcarbamate] | 1 to 10 | 10 to 100 | 1 to 10 | – | – | – | – | –
CNC(=O)COc1ccc(C[C@H](NC(=O)O[C@H]2CO[C@H]3OCC[C@H]32)[C@H](O)CN(CC(C)C)S(=O)(=O)c2ccc3c(c2)OCO3)cc1 [Compound 315, (3R,3aS,6aR)-Hexahydrofuro[2,3-b]furan-3-yl (1S,2R)-3[(1,3-benzodioxol-5-ylsulfonyl)(isobutyl)amino]-2-hydroxy-1-{4-[2-(methylamino)-2-oxoethoxy]benzyl}propylcarbamate] | 10 to 100 | 1 to 10 | 1 to 10 | – | – | – | – | –
CC(C)CN(C[C@@H](O)[C@H](Cc1ccc(OC(=O)N(C)C)cc1)NC(=O)O[C@H]1CO[C@H]2OCC[C@H]21)S(=O)(=O)c1ccc2c(c1)OCO2 [Compound 311, (3R,3aS,6aR)-Hexahydrofuro[2,3-b]furan-3-yl (1S,2R)-3[(1,3-benzodioxol-5-ylsulfonyl)(isobutyl)amino]-1-(4-{[(dimethylamino)carbonyl]oxy}benzyl)-2-hydroxypropylcarbamate] | 1 to 10 | – | – | 10 to 100 | 1 to 10 | – | – | –
COc1ccc(CCOc2ccc(C[C@H](NC(=O)O[C@H]3CO[C@H]4OCC[C@H]43)[C@H](O)CN(CC(C)C)S(=O)(=O)c3ccc4c(c3)OCO4)cc2)cc1 [Compound 206] | – | – | – | – | – | 1 to 10 | 10 to 100 | 10 to 100
CNC(=O)Oc1ccc(C[C@H](NC(=O)O[C@H]2CO[C@H]3OCC[C@H]32)[C@H](O)CN(CC(C)C)S(=O)(=O)c2ccc3c(c2)OCO3)cc1 [Compound 309, (3R,3aS,6aR)-Hexahydrofuro[2,3-b]furan-3-yl (1S,2R)-3-[(1,3-benzodioxol-5-ylsulfonyl)(isobutyl)amino]-2-hydroxy-1-(4-{[(methylamino)carbonyl]oxy}benzyl)propylcarbamate] | 1 to 10 | – | – | 1 to 10 | 1 to 10 | – | – | –
CC(C)CN(C[C@@H](O)[C@H](Cc1ccc(OCCCNc2ccc(C#N)cn2)cc1)NC(=O)O[C@H]1CO[C@H]2OCC[C@H]21)S(=O)(=O)c1ccc2c(c1)OCO2 [Compound 270, (3R,3aS,6aR)-hexahydrofuro[2,3-b]furan-3-yl (1S,2R)-3-[(1,3-benzodioxol-5-ylsulfonyl)(isobutyl)amino]-1-(4-{3[(5-cyano-2-pyridinyl)amino]propoxy}benzyl)-2-hydroxypropylcarbamate] | 1 to 10 | 1 to 10 | 1 to 10 | – | – | – | – | –
CC(C)CN(C[C@@H](O)[C@H](Cc1ccc(OCCCN2CCSC2)cc1)NC(=O)O[C@H]1CO[C@H]2OCC[C@H]21)S(=O)(=O)c1ccc2c(c1)OCO2 [Compound 277, (3R,3aS,6aR)-hexahydrofuro[2,3-b]furan-3-yl (1S,2R)-3-[(1,3-benzodioxol-5-ylsulfonyl)(isobutyl)amino]-2-hydroxy-1-{4-[3-(1,3-thiazolidin-3-yl)propoxy]benzyl}propylcarbamate] | 1 to 10 | 1 to 10 | 1 to 10 | – | – | – | – | –
CC(C)(CCCC#N)CN(C[C@@H](O)[C@H](Cc1ccc(OCc2ccccc2)cc1)NC(=O)O[C@H]1CO[C@H]2OCC[C@H]21)S(=O)(=O)c1ccc2c(c1)OCO2 [Compound 305, (3R,3aS,6aR)-Hexahydrofuro[2,3-b]furan-3-yl (1S,2R)-3-[(1,3-benzodioxol-5-ylsulfonyl)(5-cyano-2,2-dimethylpentyl)amino]-1-[4-(benzyloxy)benzyl]-2-hydroxypropylcarbamate] | 1 to 10 | 1 to 10 | 1 to 10 | – | – | – | – | –
CC(C)CN(C[C@@H](O)[C@H](Cc1ccc(OC(=O)NC(C)C)cc1)NC(=O)O[C@H]1CO[C@H]2OCC[C@H]21)S(=O)(=O)c1ccc2c(c1)OCO2 [Compound 310, (3R,3aS,6aR)-Hexahydrofuro[2,3-b]furan-3-yl (1S,2R)-3-[(1,3-benzodioxol-5-ylsulfonyl)(isobutyl)amino]-2-hydroxy-1-(4-{[(isopropylamino)carbonyl]oxy}benzyl)propylcarbamate] | 1 to 10 | 10 to 100 | 1 to 10 | – | – | – | – | –
CC(C)CN(C[C@@H](O)[C@H](Cc1ccc(OCc2cccc(C#N)c2)cc1)NC(=O)O[C@@H]1CO[C@H]2OCC[C@H]21)S(=O)(=O)c1ccc(N)cc1 [Compound 301, (3S,3aS,6aR)-hexahydrofuro[2,3-b]furan-3-yl (1S,2R)-3-[[(4-aminophenyl)sulfonyl](isobutyl)amino]-1-{4-[(3-cyanobenzyl)oxy]benzyl}-2-hydroxypropylcarbamate] | 1 to 10 | 1 to 10 | 1 to 10 | – | – | – | – | –
CC(C)CN(C[C@@H](O)[C@H](Cc1ccc(OCc2ccccn2)cc1)NC(=O)O[C@H]1CO[C@H]2OCCC21)S(=O)(=O)c1cccc(N)c1 (stereo partly drawn) [Compound 293] | 1 to 10 | 1 to 10 | 1 to 10 | – | – | – | – | –
CC(C)CN(C[C@@H](O)[C@H](Cc1ccc(OCCCN2CCN(C)CC2)cc1)NC(=O)O[C@H]1CO[C@H]2OCC[C@H]21)S(=O)(=O)c1ccc2c(c1)OCO2 [Compound 282, (3R,3aS,6aR)-hexahydrofuro[2,3-b]furan-3-yl (1S,2R)-3-[(1,3-benzodioxol-5-ylsulfonyl)(isobutyl)amino]-2-hydroxy-1-{4-[3-(4-methyl-1-piperazinyl)propoxy]benzyl}propylcarbamate] | 10 to 100 | 10 to 100 | 1 to 10 | – | – | – | – | –
CC(C)CN(C[C@@H](O)[C@H](Cc1ccc(Oc2ccc([N+](=O)[O-])cc2[N+](=O)[O-])cc1)NC(=O)O[C@H]1CO[C@H]2OCC[C@H]21)S(=O)(=O)c1ccc2c(c1)OCO2 [Compound 336, (3R,3aS,6aR)-hexahydrofuro[2,3-b]furan-3-yl (1S,2R)-3-[(1,3-benzodioxol-5-ylsulfonyl)(isobutyl)amino]-1-[4-(2,4-dinitrophenoxy)benzyl]-2-hydroxypropylcarbamate] | 1 to 10 | 1 to 10 | 1 to 10 | – | – | – | – | –
CC(C)CN(C[C@@H](O)[C@H](Cc1ccc(OC(=O)NCCn2ccnc2)cc1)NC(=O)O[C@H]1CO[C@H]2OCC[C@H]21)S(=O)(=O)c1ccc2c(c1)OCO2 [Compound 313, (3R,3aS,6aR)-Hexahydrofuro[2,3-b]furan-3-yl (1S,2R)-3-[(1,3-benzodioxol-5-ylsulfonyl)(isobutyl)amino]-2-hydroxy-1-{4-[({[2-(1H-imidazol-1-yl)ethyl]amino}carbonyl)oxy]benzyl}propylcarbamate] | 10 to 100 | 1 to 10 | 1 to 10 | – | – | – | – | –
CC(C)CN(C[C@@H](O)[C@H](Cc1ccc(OCc2ccc(-c3ccccc3C#N)cc2)cc1)NC(=O)O[C@H]1CO[C@H]2OCC[C@H]21)S(=O)(=O)c1ccc2c(c1)OCO2 [Compound 392, (3R,3aS,6aR)-hexahydrofuro[2,3-b]furan-3-yl (1S,2R)-3-[(1,3-benzodioxol-5-ylsulfonyl)(isobutyl)amino]-1-{4-[(2′-cyano[1,1-biphenyl]-4-yl)methoxy]benzyl}-2-hydroxypropylcarbamate] | 1 to 10 | 1 to 10 | 1 to 10 | – | – | – | – | –
CC(C)CN(C[C@@H](O)[C@H](Cc1ccc(OCc2ccccc2)cc1)NC(=O)O[C@H]1CO[C@H]2OCC[C@H]21)S(=O)(=O)c1ccc2c(c1)OCCO2 [Compound 365] | 1 to 10 | 1 to 10 | 1 to 10 | – | – | – | – | –
Cc1nc(COc2ccc(C[C@H](NC(=O)O[C@@H]3CO[C@H]4OCC[C@H]43)[C@H](O)CN(CC(C)C)S(=O)(=O)c3ccc(N)cc3)cc2)cs1 [Compound 300, (3S,3aS,6aR)-hexahydrofuro[2,3-b]furan-3-yl (1S,2R)-3-[[(4-aminophenyl)sulfonyl]-(isobutyl)amino]-2-hydroxy-1-{4-[(2-methyl-1,3-thiazol-4-yl)methoxy]benzyl}propylcarbamate] | 1 to 10 | 1 to 10 | 1 to 10 | – | – | – | – | –
CC(C)CN(C[C@@H](O)[C@H](Cc1ccc(OCCCn2ccnc2)cc1)NC(=O)O[C@H]1CO[C@H]2OCC[C@H]21)S(=O)(=O)c1ccc2c(c1)OCO2 [Compound 278, (3R,3aS,6aR)-hexahydrofuro[2,3-b]furan-3-yl (1S,2R)-3-[(1,3-benzodioxol-5-ylsulfonyl)(isobutyl)amino]-2-hydroxy-1-{4-[3-(1H-imidazol-1-yl)propoxy]benzyl}propylcarbamate] | 10 to 100 | 1 to 10 | 1 to 10 | – | – | – | – | –
